Like-named read-outs stand apart in the source and are kept apart here.
Legend:
[1] = test system: cytochrome P-450 drug metabolizing enzymes; assay: Cytochrome P-450 interaction; type: in vitro ADME
Protocol: Peak levels are seen within 2-3 hours of oral administration. […] Steady-state is reached within 2-3 days with a twice daily regimen. […] The remainder undergoes conjugation with glucuronic acid to form acylglucuronides which are excreted primarily in the bile.

[2] = test system: patients with atrial fibrillation
Protocol: The PETRO-Ex study was conducted in 52 centers in the United States, Denmark, The Netherlands, and Sweden.
PETRO-Ex began while the PETRO study was ongoing and investigators were initially kept blinded to patient treatment group until PETRO was completed. Unblinding investigators to patient treatment was possible thereafter.
Data were summarized descriptively; no hypothesis was to be tested. Events were analyzed on the basis of the treatment at onset. Incidences were reported as of patients with events as well as normalized to 100 patient-years on the respective treatment.
Patients who were down titrated to 50 mg q.d. based on a glomerular filtration rate≦50 mL/min during PETRO were excluded from the long-term trial; patients down-titrated in other dose levels remained on the q.d. treatment at that dose.
The total exposure reflects both trials, PETRO and PETRO-Ex, together.

## CCCCCCOC(=O)NC(=N)c1ccc(NCc2nc3cc(C(=O)N(CCC(=O)OCC)c4ccccn4)ccc3n2C)cc1 [Dabigatran etexilate, 1-methyl-2-[N-[4-(N-n-hexyloxycarbonylamidino)phenyl]aminomethyl]benzimidazol-5-ylcarboxylic acid-N-(2-pyridyl)-N-(2-ethoxycarbonylethyl)amides]
[1]
  metabolism by, induction or inhibition of cytochrome P-450 drug metabolizing enzymes: not metabolized by and does not induce or inhibit
[2]; 50 mg b.i.d.
  ALT or AST >2xULN, number: 0
  ALT or AST >3xULN and Bili >2xULN within 30 days, number: 0
  ALT or AST >3xULN, number: 0
  ALT or AST >5xULN, number: 0
  Adverse Events leading to premature discontinuation, number: 5
  Adverse Events leading to premature discontinuation, rate: 21.3 per 100 patient-years
  MI, number: 0
  Major Bleeds with aspirin, number: 0
  Major Bleeds without aspirin, number: 0
  Major Bleeds, number: 0
  Other MACE, number: 2
  Stroke and Systemic Thromboembolism, number: 3
  TIA, number: 0
[2]; 50 mg q.d.
  ALT or AST >2xULN, number: 0
  ALT or AST >3xULN and Bili >2xULN within 30 days, number: 0
  ALT or AST >3xULN, number: 0
  ALT or AST >5xULN, number: 0
  Adverse Events leading to premature discontinuation, number: 0
  MI, number: 0
  Major Bleeds with aspirin, number: 0
  Major Bleeds without aspirin, number: 0
  Major Bleeds, number: 0
  Other MACE, number: 0
  Stroke and Systemic Thromboembolism, number: 0
  TIA, number: 0
[2]; 150 mg b.i.d.
  ALT or AST >2xULN, number: 21
  ALT or AST >2xULN, rate: 3.1 per 100 patient-years
  ALT or AST >3xULN and Bili >2xULN within 30 days, number: 3
  ALT or AST >3xULN and Bili >2xULN within 30 days, rate: 0.4 per 100 patient-years
  ALT or AST >3xULN, number: 13
  ALT or AST >3xULN, rate: 1.9 per 100 patient-years
  ALT or AST >5xULN, number: 7
  ALT or AST >5xULN, rate: 1.0 per 100 patient-years
  Adverse Events leading to premature discontinuation, number: 67
  Adverse Events leading to premature discontinuation, rate: 9.8 per 100 patient-years
  MI, number: 6
  Major Bleeds with aspirin, number: 11
  Major Bleeds with aspirin, rate: 8.7 per 100 patient-years
  Major Bleeds without aspirin, number: 18
  Major Bleeds without aspirin, rate: 3.2 per 100 patient-years
  Major Bleeds, number: 29
  Major Bleeds, rate: 4.2 per 100 patient-years
  Major bleeding events: 4.2 % per year
  Other MACE, number: 7
  Stroke and Systemic Thromboembolism, number: 7
  TIA, number: 1
  fatal major bleeds, number: 4
[2]; 150 mg q.d.
  ALT or AST >2xULN, number: 2
  ALT or AST >2xULN, rate: 3.4 per 100 patient-years
  ALT or AST >3xULN and Bili >2xULN within 30 days, number: 0
  ALT or AST >3xULN, number: 0
  ALT or AST >5xULN, number: 0
  Adverse Events leading to premature discontinuation, number: 8
  Adverse Events leading to premature discontinuation, rate: 13.7 per 100 patient-years
  MI, number: 0
  Major Bleeds with aspirin, number: 0
  Major Bleeds without aspirin, number: 3
  Major Bleeds without aspirin, rate: 6.5 per 100 patient-years
  Major Bleeds, number: 3
  Major Bleeds, rate: 5.1 per 100 patient-years
  Other MACE, number: 0
  Stroke and Systemic Thromboembolism, number: 3
  TIA, number: 0
[2]; 300 mg b.i.d.
  ALT or AST >2xULN, number: 4
  ALT or AST >2xULN, rate: 4.9 per 100 patient-years
  ALT or AST >3xULN and Bili >2xULN within 30 days, number: 0
  ALT or AST >3xULN, number: 2
  ALT or AST >3xULN, rate: 2.4 per 100 patient-years
  ALT or AST >5xULN, number: 1
  ALT or AST >5xULN, rate: 1.2 per 100 patient-years
  Adverse Events leading to premature discontinuation, number: 21
  Adverse Events leading to premature discontinuation, rate: 25.6 per 100 patient-years
  MI, number: 0
  Major Bleeds with aspirin, number: 6
  Major Bleeds with aspirin, rate: 32.7 per 100 patient-years
  Major Bleeds without aspirin, number: 4
  Major Bleeds without aspirin, rate: 6.3 per 100 patient-years
  Major Bleeds, number: 10
  Major Bleeds, rate: 12.2 per 100 patient-years

— patent publication US20120282187A1 (BOEHRINGER INGELHEIM INTERNATIONAL GMBH, priority 2008, published 2012)
